Laboratory results from patent US20250009743A1, “METHODS OF TREATING CANCERS USING STING AGONISTS” (Dana-Farber Cancer Institute, Inc., priority 2021, published 2025).

Legend:
[1] = tested on: myeloid cells (CD45^+CD11b^+) in ascites of PBM-R tumor-bearing mice; test: Myeloid cells in ascites of PBM-R tumor-bearing mice (transcriptome, flow cytometry); format: in vivo, mouse; conditions: 24 hours treatment
Method: Tumors were chopped and digested in collagenase buffer as described previously (Ding et al., 2018 Cell Rep 25, 2972-2980.e2975). Single cell suspensions of tumor and ascites were obtained by filtering through 70 um strainers and treated with 1× eBioscience RBC lysis buffer (Thermo Fisher) before staining. Single cells suspensions were incubated with LIVE/DEAD Fixable Aqua Dead Cell Stain (Life Technologies, Cat #L34965) for 30 min and then blocked with anti-CD16/32 (Biolegend, clone 93) for 20 min on ice. Samples were then incubated with appropriate antibodies for 30 min on ice. Foxp3 staining buffer set (eBioscience, Cat #00-5523-00) was applied for intracellular markers staining. For the intracellular cytokine analysis, cells were stimulated with Leukocyte Activation Cocktail (BD Biosciences, Cat #550583) at 37° C. for 4-6 hours prior to FACS staining. The following antibodies were used in this study: antibodies were purchased from BioLegend unless otherwise indicated: CD45 (clone 30-F11), CD3ε (clone 145-2C11), CD4 (clone RM4-5), CD8 (clone 53-6.7), CD44 (clone IM7), CD62L (MEL-14), CD25 (PC61), IFNγ (clone XMG1.2), TNFα (clone MP6-XT22), CD11b (clone M1/70), CD11c […], F4/80 (clone BM8), Ly-6C (clone HK1.4), Ly-6G (clone 1A8), MHC-II (clone M5/114.15.2), CD80 (clone 16-10A1), CD86 (clone GL-1), MHC-I (clone KH114), FoxP3 (clone FJK-16 s; eBioscience), Phospho-IRF-3 (Ser396) (clone D601M, Cell signaling technology) and Phospho-TBK1/NAK (Ser172) (clone D52C2, Cell signaling technology). The following human antibodies were used in this study: cell surface markers includes CD45 (clone H130), CD11b (clone M1/70), CD11c (clone Bu15), CD80 (clone 2D10), CD86 (clone IT2.2), CD14 (clone 63D3), CD15 […], HLA-DR (clone L243) and HLA-A,B,C (clone W6/32); intracellular markers include CD163 (clone GHI/61), CD68 (clone Y1/82A) and CD206 (clone 15-2). Flow cytometry was performed on an LSRII (BD Biosciences) or Fortessa HTS (BD Biosciences) at DFCI Flow Cytometry Core, and all the data were analyzed using FlowJo software.
Transcriptome analysis of myeloid cells: about 1 x10^6 PBM-R tumor cells were intraperitoneally injected to FVB/NJ mice. About 2-3 weeks after injection, mice were grouped and treated with control, olaparib, MSA-2 and […] for 24 hrs. After treatment, myeloid cells (CD45^+CD11b^+) were isolated from the ascites of each mouse (n=3 per group). Total RNAs was isolated and sequenced on the Ion Torrent platform (Thermo Fisher) that described above using the Ion AmpliSeq Transcriptome Mouse Gene Expression Panel. Gene ontology (GO) analysis of DEGs was performed using topGO package in R. GSEA analysis was performed as described above. Heat maps illustrating changes in gene expression were generated using the heatmap.3 package in R.

[2] = tested on: WT BMDMs and STING^−/− BMDMs; test: WT and STING^−/− BMDMs cultured in CM from ID8-Brca1^−/− cells; format: cell-based, mouse; conditions: CM of control or olaparib-treated ID8-Brca1^−/− cells; FIG. 21I
Method: For ex vivo culture of mouse macrophages, bone marrow cells were isolated from FVB/NJ mice and cultured in DMEM containing 10% FBS, 55 μM 2-Mercaptoethanol and 20 ng/ml M-CSF. BMDMs (bone marrow derived macrophages) were harvested on day 7 and further cultured in 2.0 ml control medium (90% DMEM, 10% FBS, 55 μM 2-Mercaptoethanol and 5 ng/ml M-CSF) described above or the medium containing 50% tumor cell conditioned medium for 72 hrs before analysis. For the tumor cell conditioned medium, about 3×10^5 tumor cells were cultured in 6-well plate for 24 hrs and then treated with DMSO or olaparib. After 24 hrs incubation with DMSO or olaparib, the tumor cells were washed twice with PBS and cultured in DMEM containing 10% FBS for 48 hrs. The tumor cell conditioned medium was collected by centrifugation at 1,500 g for 5 min at 4° C. to remove all the debris and cells. For the cytokine blocking experiment, monoclonal antibodies that specific to each cytokine were added to the tumor cell conditioned medium before it was applied to culture macrophages.

[3] = tested on: ID8-Brca1^−/− tumor cells in WT and STING^−/− mice; test: Macrophages and myeloid DCs in WT and STING^−/− mice injected with ID8-Brca1^−/− tumor cells; format: in vivo, mouse; conditions: 24 h treatment; FIG. 21K, FIG. 22D
Method: Tumors were chopped and digested in collagenase buffer as described previously (Ding et al., 2018 Cell Rep 25, 2972-2980.e2975). Single cell suspensions of tumor and ascites were obtained by filtering through 70 um strainers and treated with 1× eBioscience RBC lysis buffer (Thermo Fisher) before staining. Single cells suspensions were incubated with LIVE/DEAD Fixable Aqua Dead Cell Stain (Life Technologies, Cat #L34965) for 30 min and then blocked with anti-CD16/32 (Biolegend, clone 93) for 20 min on ice. Samples were then incubated with appropriate antibodies for 30 min on ice. Foxp3 staining buffer set (eBioscience, Cat #00-5523-00) was applied for intracellular markers staining. For the intracellular cytokine analysis, cells were stimulated with Leukocyte Activation Cocktail (BD Biosciences, Cat #550583) at 37° C. for 4-6 hours prior to FACS staining. […] Flow cytometry was performed on an LSRII (BD Biosciences) or Fortessa HTS (BD Biosciences) at DFCI Flow Cytometry Core, and all the data were analyzed using FlowJo software.

Structure (SMILES): COc1cc2cc(C(=O)CCC(=O)O)sc2cc1OC [MSA-2]
- cGAS-STING pathway gene signature in myeloid cells ([1]; vs control mice): significantly higher enrichment scores
- expression of M1-like/anti-tumorigenic genes ([1]; FIG. 21D): strongly up-regulated
- expression of genes associated with antigen processing and presentation ([1]; FIG. 21D): strongly stimulated
- expression of genes associated with pro-tumorigenic M2 polarization ([1]; FIG. 21D): inhibited
- population of TAMs in ascites ([1]; FIG. 21F): decreased
- population of CD11b^+CD11c^+ myeloid DCs in ascites ([1]; FIG. 21G): increased
- M2-like TAM polarization of WT BMDMs [2]: successfully reversed
- myeloid DC activation and TAM repolarization in WT mice [3]: successfully activated myeloid DCs and repolarized M2-like TAM to M1-like status
